For assay [1], the target named is T1, activated protease C-E-6XHIS (Homo sapiens, UniProt Q9GZN4).
T1 construct: made in house; host or cells: Sf9 insect cells (baculovirus, pFastBac1)
T1 sequence (Q9GZN4 with tags, fused parts or gaps): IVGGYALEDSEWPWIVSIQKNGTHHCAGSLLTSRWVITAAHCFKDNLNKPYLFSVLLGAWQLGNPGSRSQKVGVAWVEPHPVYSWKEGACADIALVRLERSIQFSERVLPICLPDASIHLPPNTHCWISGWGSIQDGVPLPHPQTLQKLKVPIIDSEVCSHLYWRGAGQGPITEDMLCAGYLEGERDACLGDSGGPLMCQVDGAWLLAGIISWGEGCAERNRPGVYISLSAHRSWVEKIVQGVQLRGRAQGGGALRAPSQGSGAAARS
Put plainly: Chromogenic amidolytic activity assay, release of para-nitroaniline (pNA) from synthetic substrates. It is filed as biochemical. To be noted: recombinant activated protease C-E-6XHIS; substrate 500 uM; 10 mM Tris-HCl pH 7.8, 25 mM NaCl, 25 mM imidazole; 37° C., 90 minutes; 405 nm; N.A. = No Activity. On the procedure:
Eluted protein concentration was determined by a Micro BCA Kit (Pierce, Rockford, Ill.) using bovine serum albumin as a standard. Amidolytic activities of the activated protease C-E-6XHIS was monitored by release of para-nitroaniline (pNA) from the synthetic substrates indicated in Table 1. The chromogenic substrates used in these studies were all commercially available (Bachem California Inc., Torrance, Pa.; American Diagnostica Inc., Greenwich, Conn.; Kabi Pharmacia Hepar Inc., Franklin, Ohio). Assay mixtures contained chromogenic substrates at 500 uM and 10 mM Tris-HCl (pH 7.8), 25 mM NaCl, and 25 mM imidazole. Release of pNA was measured over 90 minutes at 37° C. on a micro-plate reader (Molecular Devices, Menlo Park, Calif.) with a 405 mn absorbance filter. The initial reaction rates (Vmax, mOD/min) were determined from plots of absorbance versus time using Softmax (Molecular Devices, Menlo Park, Calif.). The specific activities (nmole pNA produced/min/μg protein) of the activated protease C-E-6XHIS for the various substrates are presented in Table 1.
Amidolytic activities of the activated serine proteases are monitored by release of para-nitroaniline (pNA) from synthetic substrates that are commercially available (Bachem California Inc., Torrance, Pa.; American Diagnostica Inc., Greenwich, Conn.; Kabi Pharmacia Hepar Inc., Franklin, Ohio). Assay mixtures contain chromogenic substrates in 500 uM and 10 mM TRIS-HCl (pH 7.8), 25 mM NaCl, and 25 mM imidazole. Release of pNA is measured over 120 min at 37° C. on a micro-plate reader (Molecular Devices, Menlo Park, Calif.) with a 405 nm absorbance filter. The initial reaction rates (Vmax, mOD/min) are determined from plots of absorbance versus time using Softmax (Molecular Devices, Menlo Park, Calif.). […] Although in the present case chromogenic activity is monitored by an increase in absorbance, fluorogenic assays or other methods such as FRET to measure proteolytic activity as mentioned above, can be employed. […]

Assay [2] can be described thus: Chromogenic amidolytic activity of the purified unactivated zymogen. It is filed as biochemical, human. To be noted: not cleaved with enterokinase, same chromogenic substrates.

This is an account of results in patent publication US6849421B2, “Assays for compounds modulating human serine protease C-E” (Ortho-McNeil Pharmaceutical, Inc., priority 1999, dated 2005).

Ends that are not written are not given here. * marks the point of attachment. pNA = O=[N+]([O-])c1ccc(N*)cc1

Consider H—D—Lys(CBO)—Pro—Arg—pNA, for which the “Specific Activity” value in assay [1] was 0.002 ± 0.000 nmole pNA produced/min/μg protein.

For H—D—Pro—HHT—Arg—pNA, the “Specific Activity” value in assay [1] is given as 0.008 ± 0.001 nmole pNA produced/min/μg protein.

As to Phe-Arg-pNA, the “Specific Activity” value in assay [1] is on record as 0.058 ± 0.006 nmole pNA produced/min/μg protein.

B1: PFEK-protease C-E-6XHIS zymogen: secreted recombinant zymogen of human serine protease C-E catalytic domain with FLAG, enterokinase site and 6XHIS tag, from Sf9 cells (protein)
chain: MDSKGSSQKSRLLLLLVVSNLLLCQGVVSDYKDDDDVDAAALAAPFDDDDKIVGGYALEDSEWPWIVSIQKNGTHHCAGSLLTSRWVITAAHCFKDNLNKPYLFSVLLGAWQLGNPGSRSQKVGVAWVEPHPVYSWKEGACADIALVRLERSIQFSERVLPICLPDASIHLPPNTHCWISGWGSIQDGVPLPHPQTLQKLKVPIIDSEVCSHLYWRGAGQGPITEDMLCAGYLEGERDACLGDSGGPLMCQVDGAWLLAGIISWGEGCAERNRPGVYISLSAHRSWVEKIVQGVQLRGRAQGGGALRAPSQGSGAAARSSRHHHHHH
For the molecule B1, the chromogenic amidolytic activity entry in assay [2] is “No measurable chromogenic amidolytic activity”.
